From ChEMBL document CHEMBL1148828, “Deoxycholic acid-derived tetraoxane antimalarials and antiproliferatives(1)” (J Med Chem, 2007)
pIC50: −log10 of the molar value.

How the values were obtained:
Plasmodium falciparum [1] = assay: Antimalarial activity against Plasmodium falciparum W2; type: functional, organism-based
Plasmodium falciparum [2] = assay: Antimalarial activity against Plasmodium falciparum D6; type: functional, organism-based
Plasmodium falciparum [3] = assay: Antimalarial activity against Plasmodium falciparum TM91C235; type: functional, organism-based
CAKI-1 = assay: Antiproliferative activity against human CAKI1 cells after 48 hrs; type: functional; conditions: CAKI-1, 48 h; for CC50: read-out: LC50 (the source's name)
DU-145 = assay: Antiproliferative activity against human DU145 cells after 48 hrs; type: functional; conditions: DU-145, 48 h
HOP-92 = assay: Antiproliferative activity against human HOP92 cells after 48 hrs; type: functional; conditions: Homo sapiens, HOP-92, 48 h
NCI = assay: Growth inhibition of human NCI DTP 60 cells; type: functional
UO-31 = assay: Antiproliferative activity against human UO31 cells after 48 hrs; type: functional; conditions: Homo sapiens, UO-31, 48 h
LOX IMVI = assay: Antiproliferative activity against human LOX IMVI cells after 48 hrs; type: functional
HL-60 = assay: Antiproliferative activity against human HL60 cells after 48 hrs; type: functional
786-0 = assay: Antiproliferative activity against human 786-0 cells after 48 hrs; type: functional
CCRF-CEM = assay: Antiproliferative activity against human CCRF-CEM cells after 48 hrs; type: functional
ACHN = assay: Antiproliferative activity against human ACHN cells after 48 hrs; type: functional
[4] = Plasmodium falciparum, TM91C235

Compound	pIC50 (Plasmodium falciparum [1]; Plasmodium falciparum, W2)	IC90 (Plasmodium falciparum [1]; Plasmodium falciparum, W2)	pIC50 (Plasmodium falciparum [2]; Plasmodium falciparum, D6)	IC90 (Plasmodium falciparum [2]; Plasmodium falciparum, D6)	pIC50 (Plasmodium falciparum [3]; [4])	IC90 (Plasmodium falciparum [3]; [4])	IC90 (Plasmodium falciparum [2])	pIC50 (Plasmodium falciparum [1])	IC90 (Plasmodium falciparum [1])	pIC50 (Plasmodium falciparum [3])	IC90 (Plasmodium falciparum [3])	pIC50 (Plasmodium falciparum [2])	also measured
COC(=O)CC[C@@H](C)[C@H]1CC[C@H]2[C@@H]3CC[C@@H]4CC5(CC[C@]4(C)[C@H]3C[C@H](OC(C)=O)[C@]12C)OOC1(CCCCC1)OO5	6.95	170 nM	6.70	258 nM	–	–	–	–	–	–	–	–	–
CCCN(CCC)C(=O)CC[C@@H](C)[C@H]1CC[C@H]2[C@@H]3CC[C@@H]4CC5(CC[C@]4(C)[C@H]3C[C@H](OC(C)=O)[C@]12C)OOC1(CCCCC1)OO5	6.82	169 nM	6.75	197 nM	6.77	203 nM	–	–	–	–	–	–	–
CC(=O)O[C@H]1C[C@H]2[C@@H](CC[C@@H]3CC4(CC[C@@]32C)OOC2(CCCCC2)OO4)[C@@H]2CC[C@H]([C@H](C)CCC(N)=O)[C@@]12C	7.72	35.6 nM	7.49	50.4 nM	7.39	76.7 nM	–	–	–	–	–	–	–
CC(=O)O[C@H]1C[C@H]2[C@@H](CC[C@@H]3CC4(CC[C@@]32C)OOC2(CCCCC2)OO4)[C@@H]2CC[C@H]([C@H](C)CCC(=O)N3CCCCC3)[C@@]12C	7.26	78.6 nM	6.98	131 nM	7.07	125 nM	–	–	–	–	–	–	–
CC(=O)O[C@H]1C[C@H]2[C@@H]([C@H](OC(C)=O)C[C@@H]3CC4(CC[C@@]32C)OOC2(CCCCC2)OO4)[C@@H]2CC[C@H]([C@H](C)CCC(=O)Nc3ccccc3)[C@@]12C	7.95	25.9 nM	8.17	11.7 nM	7.99	27.8 nM	–	–	–	–	–	–	–
CC(=O)O[C@H]1C[C@H]2[C@@H](CC[C@@H]3CC4(CC[C@@]32C)OOC2(CCCCC2)OO4)[C@@H]2CC[C@H]([C@H](C)CCC(=O)NN)[C@@]12C	6.46	–	6.46	–	6.46	–	–	–	–	–	–	–	–
CC(=O)O[C@H]1C[C@H]2[C@@H](CC[C@@H]3CC4(CC[C@@]32C)OOC2(CCCCC2)OO4)[C@@H]2CC[C@H]([C@H](C)CCC(=O)O)[C@@]12C	7.03	178 nM	6.97	310 nM	–	–	–	–	–	–	–	–	–
CC(=O)O[C@H]1C[C@H]2[C@@H](CC[C@@H]3CC4(CC[C@@]32C)OOC2(CCCCC2)OO4)[C@@H]2CC[C@H]([C@H](C)CCC(=O)Nc3ccccc3)[C@@]12C	7.09	195 nM	6.88	195 nM	–	–	–	–	–	–	–	–	–
COC(=O)CC[C@@H](C)[C@H]1CC[C@H]2[C@@H]3CC[C@@H]4CC5(CC[C@]4(C)[C@H]3C[C@H](OC(C)=O)[C@]12C)OOC1(CCC(C)CC1)OO5 (stereo in doubt; 3b)	7.47	49.3 nM	7.41	–	7.37	74.9 nM	26 nM	–	–	–	–	–	–
COC(=O)CC[C@@H](C)[C@H]1CC[C@H]2[C@@H]3CC[C@@H]4CC5(CC[C@]4(C)[C@H]3C[C@H](OC(C)=O)[C@]12C)OOC1(CCC(C)CC1)OO5 (stereo in doubt; 3c)	–	–	–	–	–	–	62.9 nM	7.42	80.3 nM	7.29	77.3 nM	7.42	–
CC(=O)O[C@H]1C[C@H]2[C@@H](CC[C@@H]3CC4(CC[C@@]32C)OOC2(CCC(C)CC2)OO4)[C@@H]2CC[C@H]([C@H](C)CCC(=O)O)[C@@]12C (stereo in doubt; 4b)	–	84.8 nM	7.94	17.1 nM	7.70	47 nM	–	7.92	–	–	–	–	–
CC(=O)O[C@H]1C[C@H]2[C@@H](CC[C@@H]3CC4(CC[C@@]32C)OOC2(CCC(C)CC2)OO4)[C@@H]2CC[C@H]([C@H](C)CCC(=O)O)[C@@]12C (stereo in doubt; 4c)	–	–	–	–	–	–	31.7 nM	7.37	89.7 nM	7.50	93 nM	7.72	–
CC(=O)O[C@H]1C[C@H]2[C@@H](CC[C@@H]3CC4(CC[C@@]32C)OOC2(CCC(C)CC2)OO4)[C@@H]2CC[C@H]([C@H](C)CCC(N)=O)[C@@]12C (stereo in doubt; 13)	–	–	–	–	–	–	31.4 nM	7.71	118 nM	7.55	53.5 nM	7.64	–
CCCNC(=O)CC[C@@H](C)[C@H]1CC[C@H]2[C@@H]3CC[C@@H]4CC5(CC[C@]4(C)[C@H]3C[C@H](OC(C)=O)[C@]12C)OOC1(CCC(C)CC1)OO5 (stereo in doubt; 14)	–	30.5 nM	–	20.2 nM	–	–	–	8.00	–	7.91	23.4 nM	8.01	–
CCCNC(=O)CC[C@@H](C)[C@H]1CC[C@H]2[C@@H]3CC[C@@H]4CC5(CC[C@]4(C)[C@H]3C[C@H](OC(C)=O)[C@]12C)OOC1(CCC(C)CC1)OO5 (stereo in doubt; 15)	–	–	–	–	–	–	39.3 nM	7.47	53.7 nM	7.47	50.7 nM	7.53	GI50 (CAKI-1): 62.2 nM; TGI (CAKI-1): 163 nM; CC50 (CAKI-1): 429 nM; GI50 (DU-145): 663 nM; LC50 (concentration killing 50% of cells) (DU-145): 3910 nM; TGI (DU-145): 1610 nM; GI50 (HOP-92): 134 nM; LC50 (concentration killing 50% of cells) (HOP-92): 4530 nM; TGI (HOP-92): 873 nM; GI50 (NCI; Homo sapiens, NCI): 62 nM; GI50 (UO-31): 122 nM; TGI (UO-31): 329 nM; GI50 (LOX IMVI; Homo sapiens, LOX IMVI, 48 h): 116 nM; LC50 (concentration killing 50% of cells) (LOX IMVI; Homo sapiens, LOX IMVI, 48 h): 1680 nM; TGI (LOX IMVI; Homo sapiens, LOX IMVI, 48 h): 391 nM
CC1CCC2(CC1)OOC1(CC[C@@]3(C)[C@H](CC[C@@H]4[C@@H]3C[C@H](O)[C@]3(C)[C@@H]([C@H](C)CCC(=O)NCCN(C)C)CC[C@@H]43)C1)OO2 (stereo in doubt; 16a)	–	–	–	–	–	–	–	–	–	–	–	–	TGI (HL-60): 1010 nM; GI50 (HL-60; Homo sapiens, HL-60, 48 h): 377 nM; CC50 (HL-60; read-out: LC50 (the source's name)): 6090 nM; GI50 (HOP-92): 228 nM; LC50 (concentration killing 50% of cells) (HOP-92): 973 nM; TGI (HOP-92): 471 nM; GI50 (NCI): 15 nM; GI50 (786-0; Homo sapiens, 786-0, 48 h): 626 nM; TGI (786-0; Homo sapiens, 786-0, 48 h): 2040 nM; CC50 (786-0; Homo sapiens, 786-0, 48 h, read-out: LC50 (the source's name)): 5430 nM; GI50 (UO-31): 206 nM; LC50 (UO-31): 864 nM; TGI (UO-31): 421 nM; LC50 (concentration killing 50% of cells) (CCRF-CEM): > 10000 nM; GI50 (CCRF-CEM; Homo sapiens, CCRF-CEM, 48 h): 257 nM; TGI (CCRF-CEM; Homo sapiens, CCRF-CEM, 48 h): 539 nM; GI50 (LOX IMVI; Homo sapiens, LOX IMVI, 48 h): 184 nM; LC50 (concentration killing 50% of cells) (LOX IMVI; Homo sapiens, LOX IMVI, 48 h): 774 nM; TGI (LOX IMVI; Homo sapiens, LOX IMVI, 48 h): 378 nM
CC(=O)O[C@H]1C[C@H]2[C@@H](CC[C@@H]3CC4(CC[C@@]32C)OOC2(CCC(C)CC2)OO4)[C@@H]2CC[C@H]([C@H](C)CCC(=O)NCCN(C)C)[C@@]12C (stereo in doubt; 17)	–	–	–	–	–	–	148 nM	6.87	155 nM	6.87	153 nM	6.98	GI50 (CAKI-1): 602 nM; TGI (CAKI-1): 1400 nM; CC50 (CAKI-1): 3250 nM; GI50 (NCI; Homo sapiens, NCI): < 5 nM; GI50 (786-0): 81.3 nM; TGI (786-0): 149 nM; GI50 (ACHN): 439 nM; LC50 (concentration killing 50% of cells) (ACHN): 2300 nM; TGI (ACHN): 1050 nM; LC50 (concentration killing 50% of cells) (LOX IMVI): 56.4 nM; TGI (LOX IMVI): 5.18 nM
CC(=O)O[C@H]1C[C@H]2[C@@H](CC[C@@H]3CC4(CC[C@@]32C)OOC2(CCC(C)CC2)OO4)[C@@H]2CC[C@H]([C@H](C)CCC(=O)Nc3ccccc3)[C@@]12C (stereo in doubt; 18)	–	38.9 nM	–	–	–	–	33.7 nM	7.64	–	7.48	42.7 nM	7.63	–
CC(=O)O[C@H]1C[C@H]2[C@@H](CC[C@@H]3CC4(CC[C@@]32C)OOC2(CCC(C)CC2)OO4)[C@@H]2CC[C@H]([C@H](C)CCC(=O)Nc3ccccc3)[C@@]12C (stereo in doubt; 19)	–	–	–	–	–	–	77.5 nM	7.29	76.9 nM	7.18	109 nM	7.30	GI50 (HOP-92): < 5 nM; LC50 (concentration killing 50% of cells) (HOP-92): 15200 nM; TGI (HOP-92): 130 nM; GI50 (NCI; Homo sapiens, NCI): < 5 nM
CC(=O)O[C@H]1C[C@H]2[C@@H]([C@H](OC(C)=O)C[C@@H]3CC4(CC[C@@]32C)OOC2(CCC(C)CC2)OO4)[C@@H]2CC[C@H]([C@H](C)CCC(=O)Nc3ccccc3)[C@@]12C (stereo in doubt; 20)	–	–	–	–	–	–	8.07 nM	8.10	10.1 nM	8.20	11 nM	8.26	GI50 (NCI): 160 nM; LC50 (concentration killing 50% of cells) (LOX IMVI): 1890 nM; GI50 (LOX IMVI; Homo sapiens, LOX IMVI, 48 h): 161 nM; TGI (LOX IMVI; Homo sapiens, LOX IMVI, 48 h): 417 nM
C[C@@H]1CC[C@H]2[C@@H](C)C(=O)O[C@@H]3O[C@@]4(C)CC[C@@H]1[C@]32OO4 [ARTEMISININ]	8.17	11.5 nM	8.05	12.8 nM	7.88	17.4 nM	–	–	–	–	–	–	–
CCN(CC)CCCC(C)Nc1ccnc2cc(Cl)ccc12 (centres undefined) [CHLOROQUINE]	–	349 nM	–	13.7 nM	–	–	–	–	–	–	–	–	–
O[C@@H](c1cc(C(F)(F)F)nc2c(C(F)(F)F)cccc12)[C@H]1CCCCN1 [MEFLOQUINE]	–	8.41 nM	–	21.6 nM	–	65.7 nM	–	–	–	–	–	–	–
